Read-outs that look alike come from different tables or passages of the source. Bridge positions count the residues as written; N and C are the ends. Square brackets hold non-standard residues; d marks the D form. Ends that are not written are not given here. Peptide text beside a SMILES is read from it. * marks the point of attachment. X1 = CC[C@H](C)CCCCC(=O)*; Dab = NCC[C@H](N)C(=O)O
What was measured:
70S initiation complexes = assay: Peptide bond formation (fMet-[14C]Val dipeptide); assay type: biochemical; conditions: 30 µM amicoumacin A; 2 min 37 °C; three replicates; intact complexes 77 ± 5%
Method: Initiation complexes and ternary complexes were prepared as described previously[21],[59]. Where necessary initiation complexes were supplemented with rumicidin-1 (1 μM) or amicoumacin A (30 μM) followed by additional incubation for 5 min at 37 °C. To analyze formation of dipeptide fMet-Val, 0.2 μM 70S initiation complexes containing fMet-tRNA^fMet in the P site were mixed with 0.375 μM ternary complexes EF-Tu⋅GTP⋅[^14C]Val-tRNA^Val (444 dpm/pmol) and incubated for 2 min at 37 °C. Then samples were quenched with 1/10 volume of 5 M KOH and hydrolyzed for 30 min at 37 °C. Samples were neutralized with 1/10 volume of glacial acetic acid and analyzed by reversed-phase HPLC on RP8 (Merck) with an acetonitrile gradient in 0.1% trifluoroacetic acid. Percentage of synthesized dipeptide was determined by incorporation of the radioactive label as a ratio of peptide formed to the amount of the 70S ribosomes in the reaction mixture, as described earlier. Experiments were done in three replicates.

[1] = system: E. coli 1057 R2 (rpoS^Q3stop, macB^N470D); conditions: MHB + 0.9% NaCl
Method: Minimum inhibitory concentrations (MIC) were determined by broth microdilution assay based on Clinical and Laboratory Standards Institute (CLSI) guidelines using BSA in the growth medium to minimize AMP nonspecific adsorption. Bacterial test cultures were grown in the Mueller-Hinton broth (MHB, Sigma) at 37 °C to mid-log phase and then diluted with the 2× MH medium supplemented with 1.8% NaCl (or without salt) so that to reach a final cell concentration of 10^6 CFU/mL. 50 µL of the obtained bacterial suspension were added to aliquots of 50 µL of the peptide solutions serially diluted with sterilized 0.1% bovine serum albumin (BSA) in 96-well flat-bottom polystyrene microplates (Eppendorf #0030730011). […] To verify MIC values, the respiratory activity of the bacteria was determined. Briefly, 5 µL of 0.5 mg/mL resazurin (Sigma) was added to the wells after 24 h (or after 48 h for M. smegmatis) of incubation, and the plate was incubated for additional 3 h. In some cases, MICs were determined in the Lysogeny Broth (LB) or Middlebrook 7H9 medium. The reduction of resazurin to resorufin was recorded. […] The results were expressed as the median values determined based on at least three independent experiments performed in triplicate.
(§1) Resistance induction experiments were performed using the previously described method. This approach allows for monitoring MIC values after each transfer. Briefly, on the first day, the overnight culture of the wild-type bacteria was diluted with the 2× MHB supplemented with 1.8% NaCl (or without salt) to reach a final cell concentration of 10^6 CFU/mL. 50 µL of the obtained bacterial suspension were added to aliquots of 50 µL of the peptide solutions serially diluted with the sterilized 0.1% BSA in 96-well flat-bottom polystyrene microplates. After incubation for 20 ± 2 h at 37 °C and 950 rpm, MICs were determined as described above. For each subsequent daily transfer, 2–4 μL of the inoculum taken from the first well containing a sub-inhibitory drug concentration was diluted with 2 mL of the fresh 2× MHB supplemented with 1.8% NaCl (or without salt). […] Multiple repeated passages in the presence of antimicrobial agents were performed for each bacterial strain during the experiment. Bacteria that grew at the highest concentrations of AMPs on the final day were passaged further 3 times on drug-free agar plates before determining the final MIC value.

E. coli 1057 = assay: Serial passage resistance induction; assay type: cell-based, Escherichia coli; conditions: serial passages, both media (MHB ±0.9%NaCl)
Method: as §1, with “Briefly, on the first day, the overnight culture of the wild-type bacteria was diluted with the 2× MHB supplemented with 1.8% NaCl (or without salt) to reach a final cell concentration of 10^6 CFU/mL. 50 µL of the obtained bacterial suspension were added to aliquots of 50 µL of the peptide solutions serially diluted with the sterilized 0.1% BSA in 96-well flat-bottom polystyrene microplates.” left out

E. coli 1057 WT = assay: microbe, parasite or virus in culture; assay type: cell-based, Escherichia coli; conditions: MHB + 0.9% NaCl
Method: Minimum inhibitory concentrations (MIC) were determined by broth microdilution assay based on Clinical and Laboratory Standards Institute (CLSI) guidelines using BSA in the growth medium to minimize AMP nonspecific adsorption[49]. Bacterial test cultures were grown in the Mueller-Hinton broth (MHB, Sigma) at 37 °C to mid-log phase and then diluted with the 2× MH medium supplemented with 1.8% NaCl (or without salt) so that to reach a final cell concentration of 10^6 CFU/mL. 50 µL of the obtained bacterial suspension were added to aliquots of 50 µL of the peptide solutions serially diluted with sterilized 0.1% bovine serum albumin (BSA) in 96-well flat-bottom polystyrene microplates (Eppendorf #0030730011). […] To verify MIC values, the respiratory activity of the bacteria was determined. Briefly, 5 µL of 0.5 mg/mL resazurin (Sigma) was added to the wells after 24 h (or after 48 h for M. smegmatis) of incubation, and the plate was incubated for additional 3 h. In some cases, MICs were determined in the Lysogeny Broth (LB) or Middlebrook 7H9 medium. The reduction of resazurin to resorufin was recorded. […] The results were expressed as the median values determined based on at least three independent experiments performed in triplicate.

E. coli BW25113 = assay: MIC broth microdilution; assay type: cell-based, Escherichia coli; conditions: 24 h 37 °C, median of ≥3 experiments; for Minimum inhibitory concentration MHB: Mueller-Hinton broth without salt
Method: (§2) The reduction of resazurin to resorufin was recorded.

S. aureus ATCC 29213 = assay type: cell-based, Staphylococcus aureus; conditions: ATCC 29213, 24 h
Method: as §2

[2] = system: human red blood cells (hRBC); assay: Hemolysis (hemoglobin release assay); assay type: cell-based; conditions: mean
Method: (§3) Hemolytic activity of the peptides was tested against the fresh suspension of human red blood cells (hRBC) using the hemoglobin release assay as described previously. Two experiments were performed with the hRBC from blood samples collected from healthy donors by certified medical personnel upon informed written consent. All procedures were approved by the Ethics Committee of the Institute of Experimental Medicine (protocol 1/20 of 2/27/2020) and comply with the ethical principles of the Declaration of Helsinki. The quantitative data were represented as average means with standard deviations. The colorimetric 3-(4,5-dimethylthiazol-2-yl)-2,5-diphenyltetrazolium bromide (MTT) dye reduction assay was used to determine cytotoxicity of the peptides against human keratinocyte cell line (HaCaT) and transformed human embryonic kidney cells (HEK293T). Both cell lines were purchased from American Type Culture Collection (ATCC). 10^4 cells per well in Dulbecco’s modified Eagle’s medium (DMEM/F12) supplemented with 10% fetal bovine serum (FBS, Invitrogen) were placed into 96-well plates and then cultured in the CO2-incubator (5% CO2, 37 °C). After the media were removed, the peptides were dissolved in 100 µL of the same medium and added to cell cultures at different final concentrations. 20 h later, 20 μL of MTT (5 mg/mL, Sigma) was added to each well, and the plates were incubated for 4 h at 37 °C. Then, the media were discarded and 100 µL DMSO-isopropanol mixture at a ratio of 1:1 (v/v) was added to each well to dissolve the crystallized formazan. The absorbance at 570 nm was measured by a microplate reader AF2200 (Eppendorf). An optical density in the wells containing cells cultured without the peptides was assumed to represent 100% cell viability. Two independent experiments were performed for each peptide.

[3] = system: HEK293T (transformed embryonic kidney cells); assay: MTT cytotoxicity; assay type: cell-based, human; conditions: mean
Method: as §3

HaCaT (keratinocytes) = assay: MTT cytotoxicity; assay type: cell-based, human
Method: as §3

E. coli BW25113 ΔsbmA = assay type: cell-based, Escherichia coli
Method: as §2

E. cloacae XDR CI 4172 = assay type: cell-based, Enterobacter cloacae; conditions: XDR CI 4172, 24 h
Method: as §2

[4] = system: Mycobacterium smegmatis mc(2)155; assay type: cell-based; conditions: Mycobacterium mc(2)155, 24 h
Method: as §2

E. coli = assay type: cell-based, Escherichia coli
Description: of bacterial cells washed with sodium phosphate buffer, whereas the addition of 0.9% NaCl and/or divalent cations minimized or even abolished the activity (Supplementary Fig. 14). The same was true for Bac7[1-22] in most cases (Supplementary Fig. 14), except for the maximum […]
“NaPB + 0.9% NaCl”), at which significant outer membrane damage was observed. Thus, in the context of the host immune system operating in a complex environment containing NaCl and divalent cations, the most likely scenario is that rumicidin's ability to disrupt the integrity of the outer membrane is suppressed. Antibacterial activity of rumicidin-1 is inhibited in the presence […]
mixture, respectively), and the electrical double layer around the cell seems to be a key barrier on the way into the cell of highly charged and relatively hydrophilic PrAMP. Perhaps, translocation of rumicidin-1 into the periplasmic space depends on electrostatic interaction with the outer membrane followed by porin-mediated uptake (the gene knockout of ompF resulted in a 4-fold increase in MIC, Fig. 5a). […]
Fig. 4), (iv) experiments on inhibition of peptide bond formation Supplementary Fig. 5, and (v) structural studies of the rumicidin complex with the ribosome by Cryo-EM (Fig.4).
Point 2. Authors claim that the effect of these peptides on membrane integrity may be due to the presence of aromatic Trp and Phe residues in their structure. However, effect of the rumicidin-1 variant W23A,F24A is not shown.
To fill this gap, we performed a comparative analysis of the ability of rumicidin-1 and its analogue [W23A,F24A] to increase the permeability of E. coli membranes under different environmental conditions. In all cases in the […]

E. coli strains = conditions: cited from earlier work
Description: This highly cationic fragment is important for both high affinity binding of Bac7 to the ribosome and its penetration inside bacterial cells. The effect of N-terminal shortening of rumicidin-1 was not so marked: activities of the analogs 4-29 and 6-29 decreased only two-fold, while the MIC values of the analogs 9-29 and 11-29 against E. coli were ≥4- ...

[5] = system: E. coli BW25113 ΔtolC pDualrep2; assay: pDualrep2 double-reporter assay; assay type: cell-based, Escherichia coli; conditions: agar plate, overnight 37 °C
Method: For in vivo bioactivity test, the reporter strain BW25113 ΔtolC-pDualrep2 was used as previously described. Briefly, 10 µL of solutions of tested peptides (0.2 mM of full-length rumicidin isoforms; 0.5 mM of Rum-1[1-22] and Rum-1[9-29]) were applied to an agar plate contained a lawn of the reporter strain. 5 mg/ml erythromycin (Ery, 1 µL) and 25 µg/ml levofloxacin (Lev, 1 µL) solutions were used as control samples. After being incubated overnight at 37 °C, the plate was scanned by ChemiDoc (Bio-Rad) using “Cy3-blot” settings for RFP and “Cy5-blot” for the Katushka2S protein. At least, two independent experiments were performed, and the observed effects were the same.

CC(C)C[C@H](NC(=O)[C@@H](O)[C@@H](O)[C@@H](N)CC(N)=O)[C@@H]1Cc2cccc(O)c2C(=O)O1 [amicoumacin A]
fMet-[14C]Val dipeptide formed (70S initiation complexes): 72 ± 7%

CC[C@H](C)CCCCC(=O)N[C@@H](CCN)C(=O)N[C@H](C(=O)N[C@@H](CCN)C(=O)N[C@H]1CCNC(=O)[C@H]([C@@H](C)O)NC(=O)[C@H](CCN)NC(=O)[C@H](CCN)NC(=O)[C@H](CC(C)C)NC(=O)[C@@H](Cc2ccccc2)NC(=O)[C@H](CCN)NC1=O)[C@@H](C)O [Polymyxin B] (X1-[Dab]T[Dab][Dab][Dab][dF]L[Dab][Dab]T; lactam 4-C (inferred); N-terminus assumed)
MIC [1]: 4 µM | fold increase in MIC values under selection (E. coli 1057): 128 fold | MIC (E. coli 1057 WT): 0.062 µM

RARRPRPPKPRPPHRPRPRPRPWFPPRFP [Rumicidin-1]
Minimum inhibitory concentration MHB + 0.9% NaCl (E. coli BW25113; Mueller-Hinton broth + 0.9% NaCl, listed as WT): 4 to 8 µM | Minimum inhibitory concentration MHB (E. coli BW25113): 1 µM | Minimum inhibitory concentration MHB (E. coli BW25113; listed as WT): 2 µM | MIC S. aureus ATCC 29213 (S. aureus ATCC 29213): > 32 µM | Hemolysis ([2]; 0.25 µM): 0.134% | Hemolysis ([2]; 0.5 µM): 0.357% | Hemolysis ([2]; 1 µM): 0.408% | Hemolysis ([2]; 2 µM): 0.624% | Hemolysis ([2]; 4 µM): 0.667% | Hemolysis ([2]; 8 µM): 0.801% | Hemolysis ([2]; 16 µM): 0.83% | Hemolysis ([2]; 32 µM): 0.911% | Hemolysis ([2]; 64 µM): 0.932% | HEK293T cell viability ([3]; 1 µM): 105.704% | HEK293T cell viability ([3]; 2 µM): 104.142% | HEK293T cell viability ([3]; 4 µM): 106.626% | HEK293T cell viability ([3]; 8 µM): 103.664% | HEK293T cell viability ([3]; 16 µM): 105.32% | HEK293T cell viability ([3]; 32 µM): 89.704% | HEK293T cell viability ([3]; 64 µM): 72.479% | HaCaT cell viability (HaCaT (keratinocytes); 1 µM): 104.258% | HaCaT cell viability (HaCaT (keratinocytes); 2 µM): 105.615% | HaCaT cell viability (HaCaT (keratinocytes); 4 µM): 107.778% | HaCaT cell viability (HaCaT (keratinocytes); 8 µM): 104.973% | HaCaT cell viability (HaCaT (keratinocytes); 16 µM): 107.318% | HaCaT cell viability (HaCaT (keratinocytes); 32 µM): 107.645% | HaCaT cell viability (HaCaT (keratinocytes); 64 µM): 99.839% | MIC (E. coli BW25113 ΔsbmA; MHB + 0.9% NaCl): ≥ 64 µM | MIC (E. coli BW25113 ΔsbmA; salt-free MHB): 1 µM | MIC E. cloacae XDR CI 4172 (E. cloacae XDR CI 4172): 2 µM | MICs depending on the test medium [4]: 0.125 to 0.5 µM | MIC (E. coli; MH medium with NaCl): 4 µM | MIC (E. coli; MH medium with NaCl and divalent cations (mixture)): 16 to 32 µM | MIC (E. coli; MH medium with divalent cations): 8 µM | MIC (E. coli; salt-free MH medium): 1 µM

Bac7[5-23]: Bac7 fragment lacking four N-terminal residues (RRIR) (PRPPRLPRPRPRPLPFPRP; Bactenecin-7; UniProt P19661 135-153, looked up, fragment)
fold increase in MIC on deletion of four N-terminal residues (RRIR) (E. coli strains): ≥ 16 fold

CC[C@H]1OC(=O)[C@H](C)[C@@H](O[C@H]2C[C@@](C)(OC)[C@@H](O)[C@H](C)O2)[C@H](C)[C@@H](O[C@@H]2O[C@H](C)C[C@H](N(C)C)[C@H]2O)[C@](C)(O)C[C@@H](C)C(=O)[C@H](C)[C@@H](O)[C@]1(C)O [Erythromycin]
MIC (E. coli 1057 WT; Escherichia coli, 1057WT, 24 h): 1020 µM | reporter induction [5]: strongly induced biosynthesis of Katushka2S, but not of RFP

Bac7[5-35]: Bac7 fragment lacking four N-terminal residues (RRIR) (PRPPRLPRPRPRPLPFPRPGPRPIPRPLPFP; Bactenecin-7; UniProt P19661 135-165, looked up, fragment)
fold increase in MIC on deletion of four N-terminal residues (RRIR) (E. coli strains): ≥ 16 fold
